# Assays:
# WAC2 cells [1] = experiment: Proliferation, CellTiter 96 assay; type: cell-based, human; settings: WAC2, increasing doses, 24 h
# Experimental: (§1) Cell viability was determined by alamarBlue assay (Thermo Fisher Scientific) and proliferation was detected with CellTiter 96 Proliferation assay (Promega, Madison, WI, USA). NB cell lines (15,000 cells for viability or 5000 for proliferation) or COA6 PDX cells (30,000 for viability or 10,000 for proliferation) were seeded in 96-well cell culture plates followed by treatment with increasing doses of ATUX-3364 or ATUX-8385 for 24 h. Doses were as follows: established cell lines, 0–20 µM; PDX COA6 cells, 0–25 µM. Respective dyes (10 µL) were added, and absorbance measurement was completed with a microplate reader (Epoch Microplate Spectrophotometer, BioTek Instruments, Winooski, VT, USA). A wavelength of 570 nm was used for alamarBlue and 490 nm for CellTiter 96 with 600 nm serving as the reference for both. A minimum of three biological replicates for each experiment were completed, and data were reported as fold change ± SEM.
# COA6 PDX cells [2] = experiment: Proliferation, CellTiter 96 assay; type: cell-based, human; settings: increasing doses, 24 h
# Experimental: as §1
# SH-EP cells [3] = experiment: Proliferation, CellTiter 96 assay; type: cell-based, human; settings: increasing doses, 24 h
# Experimental: as §1
# SK-N-BE(2) cells [4] = experiment: Proliferation, CellTiter 96 assay; type: cell-based, human; settings: increasing doses, 24 h
# Experimental: as §1
# SK-N-AS cells [5] = experiment: Proliferation, CellTiter 96 assay; type: cell-based, human; settings: increasing doses, 24 h
# Experimental: as §1
# SK-N-BE(2) tumors = experiment: In vivo tumor growth, flank xenograft; set-up: species or system athymic nude mice; settings: 50 mg/kg oral twice daily, 21 days
# Experimental: (§2) SK-N-AS or SK-N-BE(2) (1.5 × 10^6) cells in 25% Matrigel (BD Biosciences) were injected into the right flank of 6-week-old female athymic nude mice (Fredricks) (n = 7 for SK-N-AS vehicle treated, n = 6 for SK-N-AS experimental groups, n = 5 for SK-N-BE(2) vehicle treated, n = 6 for SK-N-BE(2) ATUX-3364, and n = 7 ATUX-8385 treatment groups). Tumors were measured thrice per week with calipers, and tumor volumes were calculated by the formula (width^2 × length)/2, where the width was the smaller measurement. When tumors reached a volume of 60–100 mm^3, animals were randomized to three groups to receive 100 µL twice daily by oral gavage of vehicle [N,N-dimethylacetamide (DMA, 271012, Sigma Aldrich) and Kolliphor HS 15 (Solutol, 42996, Sigma Aldrich)], ATUX-3364 (50 mg/kg in DMA and Solutol), or ATUX-8385 (50 mg/kg in DMA and Solutol); dosing was based on previously published data using in vivo cancer models. Animals were weighed daily and were humanely euthanized in their home cages with CO2 and cervical dislocation 14 (SK-N-AS) or 21 (SK-N-BE(2)) days after treatment initiation, when the tumor volume reached 2000 mm^3, or when animals met IACUC parameters. Because COA6 cells grow tumors unpredictably and erratically in mice, these PDX cells were not utilized for in vivo studies, but all COA6 tumors were propagated in mice.
# SK-N-AS tumors = experiment: In vivo tumor growth, flank xenograft; set-up: species or system athymic nude mice; settings: 50 mg/kg oral twice daily, 14 days
# Experimental: as §2
# CIP2A = experiment: Immunoblotting for the endogenous PP2A inhibitor CIP2A; type: cell-based, human; settings: immunoblot
# Experimental: (§3) Post-treatment, cell lysis was completed in radioimmunoprecipitation (RIPA) buffer. Phosphatase inhibitors (P5726, Sigma), protease inhibitors (P8340, Sigma), and phenylmethanesulfonylfluoride (PMSF, P7626, Sigma) were added to make a complete RIPA buffer. Lysis was performed for 60 min at 4 °C followed by centrifugation at 17,000 rpm for 30 min (4 °C). The protein concentration was determined using the Pierce BCA Protein Assay (Thermo Fisher Scientific), and protein separation was completed on sodium dodecyl sulfate polyacrylamide (SDS-PAGE) gel-based electrophoresis. Targeted protein size was determined using molecular weight markers (Precision Plus Protein Kaleidoscope, Bio-Rad, Hercules, CA, USA). […] Immunoblots were developed with Luminata Classico or Crescendo Western horseradish peroxidase substrate (EMD Millipore, Burlington, MA, USA) on X-ray film. Anti-beta-actin, anti-vinculin, or anti-GAPDH served as internal loading controls.
# WAC2 cells [6] = experiment: Cell viability, alamarBlue assay; type: cell-based, human; settings: WAC2, 0, 5, 7.5, 20 μM, 24 h
# Experimental: as §1
# COA6 PDX cells [7] = experiment: Cell viability, alamarBlue assay; type: cell-based, human; settings: COA6 PDX cells, 0, 5, 10, 20 μM, 24 h
# Experimental: as §1
# SH-EP cells [8] = experiment: Cell viability, alamarBlue assay; type: cell-based, human; settings: SH-EP, 0, 5, 7.5, 20 μM, 24 h
# Experimental: as §1
# SK-N-BE(2) cells [9] = experiment: Cell viability, alamarBlue assay; type: cell-based, human; settings: SK-N-BE(2), 0, 5, 7.5, 20 μM, 24 h
# Experimental: as §1
# SK-N-AS cells [10] = experiment: Cell viability, alamarBlue assay; type: cell-based, human; settings: SK-N-AS, 0, 5, 7.5, 20 μM, 24 h
# Experimental: as §1
# [11] = Pharmacokinetic studies of ATUX-8385 in mice (IV and PO), plasma by LC-MS/MS; type: in vivo
# Experimental: Pharmacokinetic (PK) studies of ATUX-8385 were conducted by Eurofins. Briefly, ATUX-8385 was administered at 1 mg/kg intravenously (IV) or 30 mg/kg oral (PO) to male mice, as is the experimental choice of the Contract Research Organization. At euthanasia, samples were collected and stored at −70 °C until processing. The plasma samples were collected at 0.05, 0.167, 0.5, 1, 2, 4, 8, and 24 h(s) after IV treatment, and at 0.167, 0.5, 1, 2, 4, 6, 8, and 24 h(s) after PO treatment. The plasma samples were processed using acetonitrile precipitation and analyzed by liquid chromatography–tandem mass spectrometry (LC-MS/MS).
# SET = experiment: Immunoblotting for the endogenous PP2A inhibitor SET; type: cell-based, human; settings: immunoblot
# Experimental: as §3
# PP2A = target: T1, PP2A (Homo sapiens, UniProt P30153+P67775+Q15172); experiment: PP2A Immunoprecipitation Phosphatase Assay on lysates of treated NB cells; type: cell-based; settings: 24 h, control 100%, mean ± SEM
# T1 construct: endogenous in cells; host or cells: SK-N-AS, SK-N-BE(2), SH-EP, WAC2 human neuroblastoma cells
# T1 sequence (P30153 2-589 limits assumed): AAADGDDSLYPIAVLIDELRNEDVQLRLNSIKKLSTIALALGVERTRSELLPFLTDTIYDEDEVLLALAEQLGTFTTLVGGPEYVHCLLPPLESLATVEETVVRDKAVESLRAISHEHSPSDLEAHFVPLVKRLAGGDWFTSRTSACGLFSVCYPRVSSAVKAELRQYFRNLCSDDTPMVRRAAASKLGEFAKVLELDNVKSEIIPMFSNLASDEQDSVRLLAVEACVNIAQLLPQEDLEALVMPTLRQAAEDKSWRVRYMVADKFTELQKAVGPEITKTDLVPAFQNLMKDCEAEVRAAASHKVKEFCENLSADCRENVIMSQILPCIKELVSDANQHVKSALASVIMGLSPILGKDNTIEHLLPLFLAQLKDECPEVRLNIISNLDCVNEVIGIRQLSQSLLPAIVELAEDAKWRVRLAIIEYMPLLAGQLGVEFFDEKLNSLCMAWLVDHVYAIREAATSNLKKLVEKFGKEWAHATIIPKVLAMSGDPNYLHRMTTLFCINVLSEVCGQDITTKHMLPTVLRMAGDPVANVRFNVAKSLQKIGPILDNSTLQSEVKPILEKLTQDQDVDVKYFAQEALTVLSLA
# T1 sequence (P67775 whole entry): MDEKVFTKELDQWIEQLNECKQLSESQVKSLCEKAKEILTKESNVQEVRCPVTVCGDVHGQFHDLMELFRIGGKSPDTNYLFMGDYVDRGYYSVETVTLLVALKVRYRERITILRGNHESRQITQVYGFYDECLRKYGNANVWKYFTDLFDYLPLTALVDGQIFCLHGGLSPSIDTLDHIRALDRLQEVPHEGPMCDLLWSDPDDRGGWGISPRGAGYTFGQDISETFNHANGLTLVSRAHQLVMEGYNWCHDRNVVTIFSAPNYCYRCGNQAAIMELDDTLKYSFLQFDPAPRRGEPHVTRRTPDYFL
# T1 sequence (Q15172 whole entry): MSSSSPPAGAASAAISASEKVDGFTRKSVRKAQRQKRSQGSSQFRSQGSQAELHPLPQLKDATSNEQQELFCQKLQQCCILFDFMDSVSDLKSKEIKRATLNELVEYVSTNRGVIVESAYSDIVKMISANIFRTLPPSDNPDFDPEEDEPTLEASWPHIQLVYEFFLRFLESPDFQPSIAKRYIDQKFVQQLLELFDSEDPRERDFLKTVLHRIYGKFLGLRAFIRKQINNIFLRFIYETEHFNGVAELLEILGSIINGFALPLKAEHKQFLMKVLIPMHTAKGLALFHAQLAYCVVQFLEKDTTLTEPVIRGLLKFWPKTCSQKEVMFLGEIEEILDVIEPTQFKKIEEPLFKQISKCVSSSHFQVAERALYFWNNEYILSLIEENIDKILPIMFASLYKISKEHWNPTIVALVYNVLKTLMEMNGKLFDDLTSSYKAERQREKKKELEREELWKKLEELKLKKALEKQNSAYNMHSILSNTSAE
# Experimental: SK-N-AS, SK-N-BE(2), SH-EP, or WAC2 cells (1 × 10^6) were treated with ATUX-3364 or ATUX-8385 (SK-N-AS and SK-N-BE(2) 4 µM; SH-EP and WAC2 12 µM) for 24 h and lysed using HEPES ((4-(2-hydroxyethyl)-1-piperazineethanesulfonic acid, 10 mM) (AC215001000, Thermo Fisher Scientific), MgCl2 (1.5 mM) (MX0045-4, EM Science, Gibbstown, NJ, USA), KCl (10 mM) (02-003-741, Thermo Fisher Scientific), phenylmethylsulfonyl fluoride (0.5 mM) (PMSF, Sigma Aldrich), dithiothreitol (0.5 mM) (EC-601, National Diagnostics, Atlanta, GA, USA), and Igepal CA-630 (0.2%) (I7771, Sigma Aldrich) on ice for 20 min. Cell lysates were centrifuged at 17 000 rpm for 30 min at 4 °C. A PP2A Immunoprecipitation Phosphatase Assay Kit (17–313, EMD Millipore) was utilized per the manufacturer’s protocol to evaluate the activity of PP2A. Experiments were completed with at least three biological replicates, and data were reported as mean fold change ± standard error of the mean (SEM).
# MYCN = experiment: Immunoblotting for phosphorylated MYCN (S62) and total MYCN; type: cell-based, human; settings: increasing concentrations, immunoblot
# Experimental: as §3
# COA6 PDX cells [12] = experiment: Modified Boyden chamber migration assay; type: cell-based, human; settings: COA6, 6 μM, treated 24 h, 72 h migration; p ≤ 0.001
# Experimental: (§4) Migration was investigated using a monolayer wound healing (scratch) assay. Established NB cells (5 × 10^4) were plated in 12-well plates. […] Photographs of the plates were obtained at 0, 12, 24, and 36 h. The ImageJ MRI Wound Healing Tool (https://imagej.net, accessed on 26 November 2021) quantified the open wound area as previously described. In PDX cells, migration was assessed using modified Boyden chamber assays. Micropore inserts with […] (Corning) were utilized in 24-well plates. The insert bottoms were coated with human laminin (10 µg/mL, 150 μL, EMD Millipore). COA6 PDX cells were treated for 24 h with ATUX-3364 or ATUX-8385 (6 μM), plated (4 × 10^4 cells), allowed to migrate through the membrane for 72 h, and the insert membranes were fixed using 4% paraformaldehyde and stained with 1% crystal violet for 15 min. Inserts were photographed, and migration was quantified with ImageJ (https://imagej.net, accessed on 26 November 2021). Scratch assays were reported as the fold change area remaining open at 36 h, and modified Boyden chamber assays were reported as the mean number of migrated cells ± SEM. Experiments were completed with at least three biological replicates.
# WAC2 cells [13] = experiment: Monolayer wound healing (scratch) assay; type: cell-based, human; settings: WAC2, 12 μM; vs untreated cells, p ≤ 0.001
# Experimental: as §4
# SH-EP cells [14] = experiment: Monolayer wound healing (scratch) assay; type: cell-based, human; settings: 12 μM, vs untreated cells, p ≤ 0.001
# Experimental: as §4
# SK-N-BE(2) cells [15] = experiment: Monolayer wound healing (scratch) assay; type: cell-based, human; settings: 4 μM, vs untreated cells, p ≤ 0.001
# Experimental: as §4
# SK-N-AS cells [16] = experiment: Monolayer wound healing (scratch) assay; type: cell-based, human; settings: 4 μM
# Experimental: as §4
# PARP = experiment: Immunoblotting for cleaved and total PARP (apoptosis); type: cell-based, human; settings: immunoblot
# Experimental: as §3
# [17] = In vitro microsome (oxidative) stability / in vitro metabolism; type: in vitro ADME
# [18] = set-up: method as in PMID 35454859; settings: cited from earlier work
# [19] = set-up: method as in PMID 35454859; settings: in vivo; cited from earlier work
structure (smiles),measurement,setting,value
O=S(=O)(N[C@@H]1CNC[C@H](n2c3ccc(F)cc3c3cc(F)ccc32)[C@H]1O)c1ccc(OC(F)(F)F)cc1 [ATUX-8385],proliferation,WAC2 cells [1],significant decrease
same,proliferation,COA6 PDX cells [2],significant decrease
same,proliferation,SH-EP cells [3],significant decrease
same,proliferation,SK-N-BE(2) cells [4],significant decrease
same,proliferation,SK-N-AS cells [5],significant decrease
same,relative tumor growth,SK-N-BE(2) tumors,significant decrease
same,tumor volumes,SK-N-BE(2) tumors,significant decrease
same,relative tumor growth,SK-N-AS tumors,no decrease
same,tumor volumes,SK-N-AS tumors,no decrease
same,CIP2A expression,CIP2A; SH-EP cells,decreased
same,CIP2A expression,CIP2A; SK-N-AS cells,decreased
same,CIP2A expression,CIP2A; SK-N-BE(2) cells,decreased
same,CIP2A expression,CIP2A; WAC2 cells,decreased
same,viability,WAC2 cells [6],significantly decreased viability
same,viability,COA6 PDX cells [7],significantly decreased
same,viability,SH-EP cells [8],significantly decreased viability
same,viability,SK-N-BE(2) cells [9],significantly decreased viability
same,viability,SK-N-AS cells [10],significantly decreased viability
same,in vivo IV clearance stability relative to DBK-1154,[11]; 12.3 vs 32.5 mL/min/kg,more stable by a factor of nearly three times
same,Plasma levels,[11]; for approximately 8 h after a bolus oral dose at 30 mg/kg,1 to 2 µM
same,SET expression,SET; COA6 PDX cells,variably affected
same,SET expression,SET; SH-EP cells,did not alter SET expression
same,SET expression,SET; SK-N-AS cells,unchanged
same,SET expression,SET; SK-N-BE(2) cells,increased
same,SET expression,SET; WAC2 cells,decreased
same,PP2A activation (percent of control),"PP2A; SH-EP cells, 12 μM",126.6 ± 6.4%
same,PP2A activation (percent of control),"PP2A; SK-N-AS cells, 4 μM",134.1 ± 5.5%
same,PP2A activation (percent of control),"PP2A; SK-N-BE(2) cells, 4 μM",167.2 ± 13.7%
same,PP2A activation (percent of control),"PP2A; WAC2 cells, 12 μM",118.2 ± 9.2%
same,phosphorylated MYCN (S62),MYCN; SK-N-AS cells,decreased
same,total MYCN protein expression,MYCN; SK-N-AS cells,decreased
same,phosphorylated MYCN (S62),MYCN; SK-N-BE(2) cells,decreased
same,total MYCN protein expression,MYCN; SK-N-BE(2) cells,decreased
same,cell migration (number of migrated cells),COA6 PDX cells [12],significantly decreased
same,"motility (wound healing, area remaining open at 36 h)",WAC2 cells [13],significant decrease in motility
same,"motility (wound healing, area remaining open at 36 h)",SH-EP cells [14],significant decrease in motility
same,"motility (wound healing, area remaining open at 36 h)",SK-N-BE(2) cells [15],significant decrease in motility
same,"motility (wound healing, area remaining open at 36 h)",SK-N-AS cells [16],affected in a statistically significant manner
same,cleaved PARP,PARP; SK-N-AS whole cell lysates,increase
same,total PARP,PARP; SK-N-AS whole cell lysates,decrease
same,cleaved PARP,PARP; SK-N-BE(2) whole cell lysates,increase
same,total PARP,PARP; SK-N-BE(2) whole cell lysates,decrease
same,microsome stability relative to DBK-1154,[17]; <115.5 vs 234 µL/min/mg,more stable by a factor of two
same,Clearance (in vitro microsome (oxidative) stability),[17]; Test Concentration 1 x 10^-7 M,< 115.5 µL/min/mg
O=S(=O)(NC1CCCC(N2c3ccccc3CCc3ccccc32)C1O)c1ccc(OC(F)(F)F)cc1 (stereo not shown) [DBK-1154],in vitro microsome (oxidative) stability (clearance),[18],234 µL/min/mg
same,clearance IV,[19],32.5 mL/min/kg

# Reference: article PMC11592631, “Novel PP2A-Activating Compounds in Neuroblastoma” (Cancers, 2024)
